US8410139B2, “Prodrugs of a piperidinyl derivative as modulators of chemokine receptor activity” (Bristol-Myers Squibb Company, priority 2009, dated 2013)
Converted amounts (≈) assume the structure as drawn. Where two headings read alike, the source gives them in different places.

Key:
[1] = Thermodynamic equilibrium aqueous solubility assay; format: physicochemical; details: aqueous solvent, thermodynamic from solid, read-out: Aq. sol., mg/mL (pH)
Experimental: Thermodynamic Equilibrium Aqueous Solubility Assay
The calibration standard is prepared by accurately weighing 0.5-0.7 mg of sample in 5 ml of methanol. If the material is not fully soluble in methanol, other solvents such as DMSO or mixed solvents will be used.
*The calibration standard is typically prepared fresh immediately before the start of the assay. A two-point calibration curve should be used to determine the concentration of the final solution. A serial dilution is performed on the standard solution.
The final saturated solution is prepared by adding 1.0 ml of the appropriate aqueous solvent to the remaining portion of material (˜1 mg/l ml) into a 1 dram vial. The solution is sonicated and vortexed for ˜30 seconds. The sample solution is placed on an orbiter that continually agitates the sample solutions for 15-24 hours at room temperature. The final saturated solution is then transferred to a 1.5 ml Eppendorf tube and centrifuged for ˜2 min. at 10000 rpms. The supernatant from the saturated solution is transferred to a glass HPLC vial without filtering since the 1.5 mL volume is insufficient to saturate a syringe filter. This sample preparation procedure nullifies the effects of non-specific binding to the filtering apparatus.
The standards and sample are analyzed by HPLC using either UV/Vis diode array or variable wavelength detection. Typical quantitation wavelengths are 210 or 254 nm; detection wavelength can be individually customized to optimize sensitivity. In addition to UV detection, mass spectrometry detection is recommended if available in order to confirm the identity of the HPLC-UV peak of interest.
Dilutions of aqueous test solutions are performed if HPLC-UV peak is beyond the linear portion of the standard calibration curve. Typical dilutions include 100 ul/900 ul (×10) or 500 ul/500 ul (2×), as required.
HPLC grade solvents are employed.

[2] = Solution stability assay (pH 1.0 and pH 7.4, 37° C.); format: physicochemical; details: conversion of the prodrug to compound 1, 37° C., read-out: Aq. Stability half-life (pH 1/7.4) Hrs (converted)
Experimental: Acetonitrile Stock Solution: Prepare an Acetonitrile Stock Solution of the prodrug by dissolving 1.5-2.0 mg of accurately weighted compound in 5.0 mL of acetonitrile in 5 mL volumetric flask.
(§1) pH 7.4 Buffer Working Solution: Prepare a pH 7.4 Buffer working Solution of drug by adding 1.5 mL of the Acetonitrile Stock Solution to 3.5 mL of stability buffer in a 20 mL scintillation vial, mix very well. Using a 3 mL syringe withdraw ˜3 mL of solution and filter using the Gelman 0.45 μm syringe filter into a clean 1.5 mL LC vial. This filtered solution will be used to evaluate the prodrug degradation throughout the course of the study. Target concentration: 90-120 μg/mL (70% Aqueous: 30% Acetonitrile)
as §1, with “1.0 Acidic” for “7.4 Buffer”, “pH1.0 Working” for “pH 7.4 Buffer working”
Following the sample preparation procedure described above a single sample (n=1) is prepared for each pH condition. The samples were then placed in an HPLC autosampler maintained at 37° C. and samples were analyzed over a 24 hr period. Prodrug remaining (%) is reported relative to the initial peak area (t=0 h). In cases where a conversion to parent half-life could be calculated, a t1/2 was generated. Confirmation of the conversion to parent from the prodrug was obtained by LCMS and HPLC analysis of the final timepoint samples.
Typical LC parameters are shown below:
• HPLC System: HP1100 Series, Hewlett Packard., Heated autosampler • Analytical column. Synergi 4u Hydro C18, 4.6 mm×5.0 cm, Phenomenex • Column temperature: 40° C. • Autosampler temp: 37° C. • Flow rate: 1.0 mL/min • Injection Volume: 10 μL • Mobile Phase: A: Acetonitrile • B: 0.1% Phosphoric acid in water • Run Time: 14.0 minutes • Typical LCMS parameters are shown below: • LC-MS System: Surveyor HPLC system, ThermoFinnigan LCQ Deca XP Max (Ion trap) • Analytical column. Synergi 4u Hydro C18, 4.6 mm×5.0 cm, Phenomenex • Column temperature: 40° C. • Autosampler temp: 22° C. • Flow rate: 1.0 mL/min • Injection Volume: 5 […] • Mobile Phase: A: 95% Acetonitrile/5% 20 mM Ammonium Acetate • B: 5% Acetonitrile/95% 20 mM Ammonium Acetate • LCQ Parameters • Sheath Flow Rate: 81.64 • Aux/Sweep Flow Rate: 19.01 • Current (uA): 10.89 • Voltage (kV): 5.00 • Capillary©: 348.10 • Capillary Voltage (V): 30.44

SMILES | solubility thermodynamic ([1]; pH 7.4, aqueous buffer) | half-life ([2]; pH 1) | half-life ([2]; pH 7.4) | solubility thermodynamic ([1]; pH 6.5, aqueous buffer)
CC(C)[C@@H](NC(=O)NCC(C)(C)OC(=O)CS(=O)(=O)O)C(=O)N1CC[C@](O)(c2ccc(Cl)cc2)C(C)(C)C1 [Example 21] | > 16 mg/mL | > 22 h | > 22 h | –
CC(C)[C@@H](NC(=O)NCC(C)(C)OC(=O)CCC(=O)O)C(=O)N1CC[C@](O)(c2ccc(Cl)cc2)C(C)(C)C1 [Example 19] | – | > 22 h | > 22 h | 0.08 mg/mL (≈ 144 µM)
CC(=O)OC(C)(C)CNC(=O)N[C@@H](C(=O)N1CC[C@](O)(c2ccc(Cl)cc2)C(C)(C)C1)C(C)C [Example 4, 1-(3-((R)-1-((S)-4-(4-chlorophenyl)-4-hydroxy-3,3-dimethylpiperidin-1-yl)-3-methyl-1-oxobutan-2-yl)ureido)-2-methylpropan-2-yl acetate] | – | 29 h | > 22 h | 0.03 mg/mL
CC(C)[C@@H](NC(=O)NCC(C)(C)OC(=O)CCS(=O)(=O)O)C(=O)N1CC[C@](O)(c2ccc(Cl)cc2)C(C)(C)C1 [Example 22] | – | 44 h | > 22 h | > 7 mg/mL
CC(C)[C@@H](NC(=O)NCC(C)(C)OC(=O)C(N)CS(=O)(=O)O)C(=O)N1CC[C@](O)(c2ccc(Cl)cc2)C(C)(C)C1 (stereo partly shown) [Example 32] | – | > 22 h | > 22 h | 1.12 mg/mL (≈ 1850 µM)
CC(O)C(=O)OCO[C@]1(c2ccc(Cl)cc2)CCN(C(=O)[C@H](NC(=O)NCC(C)(C)O)C(C)C)CC1(C)C (stereo partly shown) [Example 27] | – | 36 h | > 22 h | 0.5 mg/mL (≈ 899 µM)
CC(C)[C@@H](NC(=O)NCC(C)(C)OC(=O)OCCN1CCOCC1)C(=O)N1CC[C@](O)(c2ccc(Cl)cc2)C(C)(C)C1 [Example 7, 1-(3-((R)-1-((S)-4-(4-chlorophenyl)-4-hydroxy-3,3-dimethylpiperidin-1-yl)-3-methyl-1-oxobutan-2-yl)ureido)-2-methylpropan-2-yl 2-morpholinoethyl carbonate] | – | 85 h | 131 h | 0.34 mg/mL (≈ 556 µM)
CC(C)[C@@H](NC(=O)NCC(C)(C)OC(=O)CN)C(=O)N1CC[C@](O)(c2ccc(Cl)cc2)C(C)(C)C1 [Example 1, 1-(3-((R)-1-((S)-4-(4-chlorophenyl)-4-hydroxy-3,3-dimethylpiperidin-1-yl)-3-methyl-1-oxobutan-2-yl)ureido)-2-methylpropan-2-yl 2-aminoacetate] | – | 159 h | 86 h | 1.1 mg/mL (≈ 2150 µM)
CC(C)[C@@H](NC(=O)NCC(C)(C)OCOP(=O)(O)O)C(=O)N1CC[C@](O)(c2ccc(Cl)cc2)C(C)(C)C1 [Example 10] | – | < 1 h | – | –

Further lines, results first:

solubility thermodynamic ([1]; pH 7.4, aqueous buffer) | half-life ([2]; pH 1) | half-life ([2]; pH 7.4) | solubility thermodynamic ([1]; pH 6.5, aqueous buffer) | SMILES
0.18 mg/mL (≈ 295 µM) | 49 h | 107 h | – | CC(C)[C@@H](NC(=O)NCC(C)(C)OC(=O)OCOC(=O)C1(N)CC1)C(=O)N1CC[C@](O)(c2ccc(Cl)cc2)C(C)(C)C1 [Example 14]
– | > 22 h | > 22 h | > 1.6 mg/mL | CCC(O)CC(=O)OCOC(=O)OC(C)(C)CNC(=O)N[C@@H](C(=O)N1CC[C@](O)(c2ccc(Cl)cc2)C(C)(C)C1)C(C)C (stereo partly shown) [Example 33]
– | 25 h | 23 h | > 0.3 mg/mL | CC(C)[C@@H](NC(=O)NCC(C)(C)OC(=O)OCS(=O)(=O)O)C(=O)N1CC[C@](O)(c2ccc(Cl)cc2)C(C)(C)C1 [Example 23]
– | 82 h | 0.3 h | – | CC(C)[C@@H](N)C(=O)OCOC(=O)OC(C)(C)CNC(=O)N[C@@H](C(=O)N1CC[C@](O)(c2ccc(Cl)cc2)C(C)(C)C1)C(C)C [Example 12]
– | 107 h | 0.3 h | – | CC(C)[C@@H](NC(=O)NCC(C)(C)OC(=O)OCOP(=O)(O)O)C(=O)N1CC[C@](O)(c2ccc(Cl)cc2)C(C)(C)C1 [Example 11]
– | 10.1 h | 0.25 h | – | CC(C)[C@@H](NC(=O)NCC(C)(C)OC(=O)OCOC(=O)C(C)(C)N)C(=O)N1CC[C@](O)(c2ccc(Cl)cc2)C(C)(C)C1 [Example 13]
